Measured values as given in patent US20260272908A1 (VANDERBILT UNIVERSITY, priority 2023, published 2026).

Experiments:
[1] = system: Meta3 organoids; assay: Meta3 metaplastic organoid growth and survival (organoid diameter, phase-contrast); type: cell-based, mouse; conditions: trametinib 1 μM, pyrvinium 100 nM, 3 days
Experimental: All experiments were repeated at least three times.
All experiments were performed at least in triplicate.

[2] = system: Meta4 organoids; conditions: pyrvinium, 1 day
[3] = system: Mist1-Kras mice; assay: Pyrvinium treatment of Mist1-Kras mice (metaplasia progression to dysplasia, gastric corpus histology and immunostaining); type: in vivo, mouse
Experimental: FIG. 5B schematically illustrates the H&E (top) and immunostaining for UEA1 (middle) and Ki-67 (bottom) in the wild type mice treated with Pyr for 2 weeks and Mist1-Kras mice treated with DMSO or Pyr for 1 or 2 weeks. FIG. 5C schematically illustrates the quantitation of Ki-67-positive cells per 20× field. […] Mean±standard deviation. Unpaired t-test or one-way ANOVA with Tukey's multiple comparisons. ns, not significant. *P<0.05. **P<0.01. ***P<0.001. Scale bar=100 μM.
To prepare formaldehyde-fixed paraffin-embedded (FFPE) organoids/spheres, Matrigel domes containing organoids/spheres were fixed in 4% PFA at room temperature for 30 min. The fixed organoids were embedded in HistoGel™ (Thermo Fisher Scientific) followed by a wash in PBS for 1 min and processed according to a standard histological protocol for paraffin embedding. Human tissues were fixed in 10% neutral buffered formalin (NBF) for 1 week at room temperature and mouse tumor tissues were fixed in 4% paraformaldehyde (PFA) solution overnight at 4° C. The fixed tissues were transferred into 70% ethanol and processed according to a standard histological protocol for subsequent paraffin embedding. Four to five micrometers of organoid/sphere or tissue paraffin sections were de-paraffinized in Histoclear solution (Electron Microscopy Services) and rehydrated through a series of ethanol (100%, 95% and 75%).
Antigen retrieval was performed using a pH 6 or pH 9 target retrieval solution (Dako) in a pressure cooker for 15 min and cooled for 1 hour. For immunofluorescence staining, each section was incubated in serum-free protein block solution (Dako) at room temperature for 1.5 hours. Primary antibodies were diluted in Antibody Diluent with background reducing components (Dako) and applied to sections, then incubated overnight at 4° C. Slides were washed in PBS for 5 min three times and secondary antibodies diluted in Antibody Diluent (Dako) were applied to each section. Sections were incubated at room temperature for 1 hour and PBS with Hoechst (1:5000) was applied to the sections for 5 min for nuclei counterstaining. Slides were washed in PBS for 5 min three times, mounted with ProLong™ Gold Antifade Mountant (ThermoFisher) and cover slipped. All fluorescence images were acquired using a Zeiss Axio Imager M2 microscope with Axiovision digital imaging system or scanned using the Aperio Versa 200 Fluorescent Slide Scanner (Leica) at the Vanderbilt Digital Histology Shared Resource. Preparation and overlay of fluorescence images were performed using Adobe Photoshop.
For immunohistochemical staining, sections were blocked in Peroxidase Blocking Solution (Vector Laboratories) at room temperature for 20 min followed by serum-free protein block solution (Dako) at room temperature for 1.5 hours. Primary antibodies were diluted in Antibody Diluent with background reducing components (Dako) and applied to sections, then incubated overnight at 4° C. Horseradish-peroxidase (HRP)-conjugated secondary antibodies were applied to sections and incubated for 15 min at room temperature followed by three washes in PBS for 5 min each. ImmPRESS polymer detection reagent and ImmPACT DAB substrate kits (Vector Laboratories) were used for antibody detection. Images were scanned on a SCN400 slide scanner (Leica) at 20× magnification.
One or two weeks after either DMSO or pyrvinium treatment, gastric mucosa in each group of mice was examined.

[4] = system: CD133 and CD166; assay: qRT-PCR of dysplastic stem cell markers in Meta4 organoids; type: cell-based, mouse; conditions: pyrvinium-treated vs DMSO
Experimental: FIG. 4D-4E show lusters of dysplastic stem cells (DSCs) differentiated cells or damaged cells in a superimposed UMAP plot (FIG. 4D) and their proportions in DMSO-treated and Pyr-treated Meta4 samples (FIG. 4E).
Total RNAs were extracted from Meta3 or Meta4 organoids using the Trizol (Invitrogen) reagent. cDNAs were synthesized using iScript gDNA clear cDNA synthesis kit (Bio-Rad) and RT-PCR was performed using SsoAdvanced™ Universal SYBR Green supermix (Bio-Rad) and a CFX96 Real-Time PCR Detection System (Bio-Rad). GAPDH, a house keeping gene, was used to normalize gene expression levels. All reactions were performed in triplicate and relative gene expression levels were obtained by the comparative ΔΔCt method using CFX Maestro software (Bio-Rad).

[5] = system: human pre-cancerous organoid (hPCO) lines; assay: Human precancerous organoid (hPCO) growth and organoid death
Experimental: To establish human pre-cancer organoids (hPCO), fresh tissues were obtained from the gastric cancer patients who underwent curative gastrectomy at SNUH (IRB No. H-1806-166-954).
Meta3, Meta4, and hPCO organoids were cultured in Matrigel (ECM, Sigma) with Mouse or Human IntestiCult medium (StemCell Technology) supplemented with 1% of penicillin/streptomycin (Gibco) in 48-well plates and medium was replaced every 3 days. The organoids were split every 5-7 days before they formed budding structures.
Mouse or human organoids were split and cultured in the Mouse or Human IntestiCult media for 1-2 days until they formed three-dimensional (3D) spherical structures, then the media was switched to media containing either DMSO vehicle or a certain concentration of each drug and cultured for 3 days. The EVOS M7000 inverted microscope were used to obtain phase contrast images of organoids. All experiments were repeated at least three times.
The number and diameters of mouse and human organoids treated with drugs were manually counted and measured at day 0 and 3 or 6 after treatment from four entire well images of each condition at 4× magnification. For counting live or dead cells, organoids were stained with Calcein AM for live cells and EthD-1 for dead cells 3 days after treatment and the number of EthD-1 positive organoids were manually counted from images taken from three wells of each condition at 4× magnification. All experiments were performed at least in triplicate. The mean values from each condition were compared by Student's paired or unpaired t-test using Graphpad Prism. *P<0.05, **P<0.01, ***P<0.001, ****P<0.0001.

[6] = system: Meta4 organoids; assay: FACS analysis of Meta4 organoids (7-AAD/annexin V; CD133/CD166); type: cell-based, mouse
[7] = system: STAT3-target genes; assay: Quantitative real time-PCR for STAT3 target genes in Meta4 organoids; type: cell-based, mouse; conditions: pyrvinium 100 nM
Experimental: FIG. 3C-3D show the Western blot analysis for p-STAT3 and p-ERK in Meta3 and Meta4 organoids (FIG. 3C) and ratios of p-STAT3/total STAT3 and p-ERK/total ERK (FIG. 3D). […] FIG. 3F-3G show phase-contrast images of Meta4 organoids treated with DMSO, Pyr (100 nM), STAT3-IN-1 (1 μM), Stattic (2 μM), and Cryptotanshinone (CPT) (5 μM) for 3 days (FIG. 3F), and quantitation of organoid diameters before and after treatment (FIG. 3G). FIG. 3H-3I show phase-contrast images of Meta4 organoids treated with DMSO, trametinib (Tra), STAT3-IN-1, combination of Tra and STAT3-IN-1, and Pyr, for 3 days (FIG. 3H), and quantitation of organoid diameters before and after treatment (FIG. 3I). FIG. 3J-3K show western blot for p-STAT3 and p-ERK after treatment of Tra, Pyr, and SSTC3 (FIG. 3J) and ratios of p-STAT3/t-STAT3 and p-ERK/t-ERK (FIG. 3K). […] Relative quantification of each gene expression level was normalized to GAPDH gene expression. Shading scale represents the mRNA expression values. FIG. 3M show representative mRNA of Pim-1 and Cyclin-B1 after treatment. Mean±standard deviation. […] Scale bar=500 μM.
Two-tailed Mann-Whitney test.

[8] = Mist1-Kras mice 3 months after tamoxifen, pyrvinium 1 or 2 weeks
[9] = Mist1-Kras mice, pyrvinium 2 weeks

## Cc1cc(/C=C/c2ccc3cc(N(C)C)ccc3[n+]2C)c(C)n1-c1ccccc1 [pyrvinium]
[1]
  organoid size compared to control organoids treated with DMSO: significant reduction in size
[2]
  DSC (dysplastic stem cell) subpopulation: not observed
  STAT3-target genes Fos, Fosb, and Jun: downregulated
  binding and transcription regulator activities (PANTHER gene ontology): decreased
  cells damaged and mostly differentiated cells among treated cells: over 73.9%
  damage-related genes Dusp4, Ddit3 and Areg: upregulated
[3]; [8]
  acid-secreting parietal cells in corpus mucosa: gradually repopulated the corpus mucosa
  number of hyperplastic foveolar glands with UEA1 and Ki-67 positive proliferating cells: significantly decreased
[3]; [9]
  CD4^+ T cell population: dramatic decrease
  CD8^+ T cells: did not show a significant difference
  CD19^+ B cells: did not show a significant difference
  CD163-positive M2-macrophages: significantly decreased
  NK cells: significantly decreased
  Pim-1 (immunostaining, gastric corpus): downregulation
  number of dysplastic glands: significant decrease
  p-STAT3 (immunostaining, gastric corpus): downregulation
  total number of CD3^+ T cells: decreased
[4]
  CD133 and CD166 gene expression: decreases
[5]; hPCO with metaplastic features
  growth of metaplastic cells in hPCO lines: growth arrest
[5]; of twenty hPCO lines, 6 days
  number of hPCO lines classified pyrvinium-moderate: six
  number of hPCO lines classified pyrvinium-resistant: nine
  number of hPCO lines classified pyrvinium-sensitive: Five
[6]; pyrvinium-treated
  CD133^+CD166^+ DSCs (FACS): significant decrease
[6]; pyrvinium-treated cells
  7-AAD and Annexin V expression: increase
[7]
  expression of several STAT3-target genes, including Cyclin B1 and Pim-1: downregulated
